Measured values from US12371428B2 (Exelixis, Inc., priority 2019, dated 2025).

Experiments:
Assay type in all cases: cell-based
[1] = molecular target: AXL (phospho-AXL, Gas6-stimulated A-172 glioblastoma cells) (Homo sapiens (Human), UniProt P30530); assay: AXL autophosphorylation ELISA in A-172 cells (Example E); conditions: cellular activity; AXL autophosphorylation ELISA in A-172 cells; read-out: Axl IC50
How it was run: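 Phospho-AXL was measured by ELISA in lysates of Gas6-stimulated A-172 cells, starved 24 h in serum-free medium and exposed 1 h to an 8-point compound dilution at 0.3% DMSO.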

[2] = molecular target: Mer (phospho-Mer, MERTK-transfected 293A cells) (Homo sapiens (Human), UniProt Q12866); assay: Mer autophosphorylation ELISA in transient transfected 293A cells (Example H); conditions: cellular activity; Mer autophosphorylation ELISA in transient transfected 293A cells
Mer (phospho-Mer, MERTK-transfected 293A cells), sequence (Q12866 21-999): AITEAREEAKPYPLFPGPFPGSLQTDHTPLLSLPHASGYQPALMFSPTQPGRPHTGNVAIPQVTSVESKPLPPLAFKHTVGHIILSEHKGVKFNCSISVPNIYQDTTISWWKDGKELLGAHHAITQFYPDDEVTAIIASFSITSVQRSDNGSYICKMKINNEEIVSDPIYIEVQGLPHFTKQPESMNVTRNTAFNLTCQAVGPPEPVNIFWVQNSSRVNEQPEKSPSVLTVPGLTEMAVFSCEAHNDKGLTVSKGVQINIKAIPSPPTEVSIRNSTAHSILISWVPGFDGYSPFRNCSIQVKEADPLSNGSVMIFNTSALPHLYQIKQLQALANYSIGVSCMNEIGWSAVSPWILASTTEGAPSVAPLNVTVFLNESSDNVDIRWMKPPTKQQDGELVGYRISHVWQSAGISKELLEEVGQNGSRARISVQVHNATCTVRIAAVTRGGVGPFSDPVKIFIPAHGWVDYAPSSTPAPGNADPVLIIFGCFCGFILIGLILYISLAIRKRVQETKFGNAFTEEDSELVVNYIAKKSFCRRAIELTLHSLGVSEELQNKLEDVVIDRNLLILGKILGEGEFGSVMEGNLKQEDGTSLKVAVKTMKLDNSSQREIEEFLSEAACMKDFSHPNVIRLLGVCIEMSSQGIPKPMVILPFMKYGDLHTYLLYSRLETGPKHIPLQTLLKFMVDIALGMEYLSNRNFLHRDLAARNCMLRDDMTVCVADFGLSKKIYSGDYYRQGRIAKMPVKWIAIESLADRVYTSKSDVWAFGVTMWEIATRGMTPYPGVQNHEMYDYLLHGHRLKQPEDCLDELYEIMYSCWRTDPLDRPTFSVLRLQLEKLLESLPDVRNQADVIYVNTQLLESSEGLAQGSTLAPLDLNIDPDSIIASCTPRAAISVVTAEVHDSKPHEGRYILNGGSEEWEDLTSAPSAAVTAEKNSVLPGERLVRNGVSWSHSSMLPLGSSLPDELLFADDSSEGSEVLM
How it was run: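 IC50 from 4-parameter logistic fit of phospho-Mer levels, quantified by ELISA against a phospho-Mer standard in lysates of MERTK-transfected 293A cells. Cells exposed 1 h to 8-point serial dilutions, serum-free, 0.3% DMSO; controls: DMSO (100%) and reference inhibitor (0%).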

[3] = molecular target: KDR (phospho-KDR, VEGF165-stimulated HUVEC cells) (Homo sapiens (Human), UniProt P35968); assay: KDR autophosphorylation ELISA in HUVEC cells (Example G); conditions: cellular activity; KDR autophosphorylation ELISA in HUVEC cells
KDR (phospho-KDR, VEGF165-stimulated HUVEC cells), sequence (P35968 20-1356): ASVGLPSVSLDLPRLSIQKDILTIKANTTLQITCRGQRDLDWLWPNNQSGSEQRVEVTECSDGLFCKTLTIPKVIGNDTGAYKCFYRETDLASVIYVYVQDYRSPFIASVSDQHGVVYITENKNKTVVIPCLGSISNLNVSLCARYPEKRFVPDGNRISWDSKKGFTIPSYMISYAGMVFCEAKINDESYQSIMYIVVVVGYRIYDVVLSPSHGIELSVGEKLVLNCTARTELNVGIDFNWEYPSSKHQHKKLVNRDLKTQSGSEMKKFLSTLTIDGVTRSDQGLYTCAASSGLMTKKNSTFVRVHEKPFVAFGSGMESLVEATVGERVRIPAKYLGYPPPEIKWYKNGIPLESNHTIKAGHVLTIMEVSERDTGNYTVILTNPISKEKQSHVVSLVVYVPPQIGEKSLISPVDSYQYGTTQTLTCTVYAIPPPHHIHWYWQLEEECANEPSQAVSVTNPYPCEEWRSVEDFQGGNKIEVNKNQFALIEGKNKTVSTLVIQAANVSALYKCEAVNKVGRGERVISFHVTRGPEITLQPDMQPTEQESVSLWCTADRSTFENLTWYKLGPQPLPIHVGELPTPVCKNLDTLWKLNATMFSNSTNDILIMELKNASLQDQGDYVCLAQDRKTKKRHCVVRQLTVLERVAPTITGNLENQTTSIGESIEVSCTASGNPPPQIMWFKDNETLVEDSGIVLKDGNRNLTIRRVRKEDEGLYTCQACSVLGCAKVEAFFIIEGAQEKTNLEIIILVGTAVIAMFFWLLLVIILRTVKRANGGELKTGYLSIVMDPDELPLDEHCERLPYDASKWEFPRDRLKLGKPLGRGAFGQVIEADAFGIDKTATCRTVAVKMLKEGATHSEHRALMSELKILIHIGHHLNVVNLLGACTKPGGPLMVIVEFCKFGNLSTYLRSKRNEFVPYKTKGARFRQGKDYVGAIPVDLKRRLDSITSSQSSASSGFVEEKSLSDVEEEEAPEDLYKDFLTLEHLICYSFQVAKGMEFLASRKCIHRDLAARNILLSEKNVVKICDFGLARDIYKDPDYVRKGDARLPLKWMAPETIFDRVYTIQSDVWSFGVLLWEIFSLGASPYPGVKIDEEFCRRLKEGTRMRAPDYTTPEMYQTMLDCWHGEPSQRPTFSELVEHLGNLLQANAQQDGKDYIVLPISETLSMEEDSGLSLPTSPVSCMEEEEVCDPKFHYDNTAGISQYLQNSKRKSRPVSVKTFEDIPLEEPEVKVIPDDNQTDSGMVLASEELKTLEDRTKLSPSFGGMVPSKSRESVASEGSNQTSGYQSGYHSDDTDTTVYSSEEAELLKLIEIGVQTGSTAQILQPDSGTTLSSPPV
How it was run: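 First, endothelial cells were cultured a day, then kept without serum for another day. Next came 1 h with serially diluted compound, a brief 5 min VEGF165 stimulus (100 ng/mL), rapid lysis, and ELISA detection of receptor phosphorylation relative to stimulated and non-stimulated controls.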

[4] = molecular target: Met (phospho-Met, HGF-stimulated PC-3 prostate cancer cells) (Homo sapiens (Human), UniProt P08581); assay: Met autophosphorylation ELISA in PC-3 cells (Example F); conditions: cellular activity; Met autophosphorylation ELISA in PC-3 cells; read-out: c-Met IC50
Met (phospho-Met, HGF-stimulated PC-3 prostate cancer cells), sequence (P08581 25-1390): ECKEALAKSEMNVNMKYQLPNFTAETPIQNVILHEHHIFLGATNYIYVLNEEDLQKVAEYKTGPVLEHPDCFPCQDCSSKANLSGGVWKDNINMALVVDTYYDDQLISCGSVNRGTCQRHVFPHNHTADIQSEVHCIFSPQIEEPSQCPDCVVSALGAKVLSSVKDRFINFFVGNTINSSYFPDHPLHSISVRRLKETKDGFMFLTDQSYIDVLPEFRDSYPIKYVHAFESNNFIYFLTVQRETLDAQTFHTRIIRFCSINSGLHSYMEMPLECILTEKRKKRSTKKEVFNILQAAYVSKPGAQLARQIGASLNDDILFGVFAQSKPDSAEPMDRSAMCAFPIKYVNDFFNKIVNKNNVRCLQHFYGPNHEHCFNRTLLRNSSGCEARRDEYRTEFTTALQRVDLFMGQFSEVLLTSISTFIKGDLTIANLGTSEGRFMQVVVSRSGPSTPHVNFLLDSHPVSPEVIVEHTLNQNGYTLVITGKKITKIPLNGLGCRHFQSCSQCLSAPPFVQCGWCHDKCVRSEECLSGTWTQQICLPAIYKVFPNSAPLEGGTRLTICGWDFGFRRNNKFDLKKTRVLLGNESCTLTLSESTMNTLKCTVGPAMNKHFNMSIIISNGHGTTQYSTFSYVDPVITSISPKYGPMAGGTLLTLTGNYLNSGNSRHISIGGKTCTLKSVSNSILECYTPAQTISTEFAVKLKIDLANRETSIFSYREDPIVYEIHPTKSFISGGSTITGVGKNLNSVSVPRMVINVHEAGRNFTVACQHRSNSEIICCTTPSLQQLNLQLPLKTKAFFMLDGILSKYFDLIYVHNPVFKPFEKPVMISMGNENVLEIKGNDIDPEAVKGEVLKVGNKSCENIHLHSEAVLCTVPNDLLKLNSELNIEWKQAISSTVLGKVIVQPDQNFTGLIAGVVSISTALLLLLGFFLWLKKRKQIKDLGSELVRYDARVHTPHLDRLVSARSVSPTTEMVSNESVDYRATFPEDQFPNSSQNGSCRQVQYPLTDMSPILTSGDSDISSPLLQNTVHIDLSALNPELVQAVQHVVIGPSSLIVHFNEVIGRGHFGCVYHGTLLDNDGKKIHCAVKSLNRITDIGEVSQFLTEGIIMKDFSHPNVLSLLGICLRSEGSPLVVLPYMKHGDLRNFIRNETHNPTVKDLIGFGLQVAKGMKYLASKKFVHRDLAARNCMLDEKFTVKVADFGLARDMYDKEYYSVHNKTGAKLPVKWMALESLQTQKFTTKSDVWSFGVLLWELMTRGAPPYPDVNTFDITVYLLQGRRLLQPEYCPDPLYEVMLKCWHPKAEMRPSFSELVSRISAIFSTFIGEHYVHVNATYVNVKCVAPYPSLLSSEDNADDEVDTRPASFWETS
How it was run: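 IC50 values derive from a 4-parameter logistic fit of phospho-Met (panTyr) sandwich ELISA signals in PC-3 lysates, scaled between DMSO and reference-inhibitor wells. Cells, starved 3 h in serum-free medium, had 1 h compound exposure (8 doses, 0.3% DMSO) before 10 min stimulation with 100 ng/mL HGF.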

AXL (phospho-AXL, Gas6-stimulated A-172 glioblastoma cells), sequence (P30530 26-894): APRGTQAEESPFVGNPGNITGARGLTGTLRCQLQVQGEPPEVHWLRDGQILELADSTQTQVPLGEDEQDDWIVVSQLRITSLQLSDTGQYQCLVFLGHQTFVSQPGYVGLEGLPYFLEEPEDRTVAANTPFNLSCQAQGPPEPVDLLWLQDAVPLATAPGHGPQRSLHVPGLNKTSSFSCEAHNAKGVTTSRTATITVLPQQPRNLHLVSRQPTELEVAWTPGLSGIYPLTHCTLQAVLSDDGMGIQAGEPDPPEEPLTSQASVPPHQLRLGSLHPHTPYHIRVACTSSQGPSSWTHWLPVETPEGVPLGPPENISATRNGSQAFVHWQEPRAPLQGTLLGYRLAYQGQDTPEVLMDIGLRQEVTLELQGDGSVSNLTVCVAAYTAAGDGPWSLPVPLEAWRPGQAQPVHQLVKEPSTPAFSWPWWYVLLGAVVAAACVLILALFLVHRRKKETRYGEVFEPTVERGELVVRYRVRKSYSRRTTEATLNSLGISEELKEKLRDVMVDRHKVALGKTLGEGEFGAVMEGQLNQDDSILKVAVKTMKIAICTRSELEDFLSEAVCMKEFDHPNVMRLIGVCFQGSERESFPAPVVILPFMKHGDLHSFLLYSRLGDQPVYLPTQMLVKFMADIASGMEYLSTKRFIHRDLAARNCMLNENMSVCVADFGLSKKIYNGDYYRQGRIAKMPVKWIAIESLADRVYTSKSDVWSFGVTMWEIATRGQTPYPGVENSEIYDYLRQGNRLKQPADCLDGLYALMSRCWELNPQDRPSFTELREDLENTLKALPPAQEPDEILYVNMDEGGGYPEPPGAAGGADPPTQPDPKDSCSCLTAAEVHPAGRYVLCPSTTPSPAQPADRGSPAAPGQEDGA

Row | IC50 [1] | IC50 [2] | IC50 [3] | IC50 [4] | Compound
1 | < 100 nM | < 100 nM | < 100 nM | < 100 nM | C=C(C)c1cnc2c(Oc3ccc(NC(=O)c4c(C)nc(C)c(-c5ccc(F)cc5C)c4O)cc3F)ccnc2c1 [Compound 461, 5-(4-fluoro-2-methylphenyl)-N-[3-fluoro-4-[(7-prop-1-en-2-yl-1,5-naphthyridin-4-yl)oxy]phenyl]-4-hydroxy-2,6-dimethylpyridine-3-carboxamide]
2 | < 100 nM | < 100 nM | < 100 nM | < 100 nM | C=C(C)c1cnc2c(Oc3ccc(NC(=O)c4cnc(C)n(-c5ccc(F)cc5)c4=O)cc3)ccnc2c1 [Compound 462, 1-(4-fluorophenyl)-2-methyl-6-oxo-N-[4-[(7-prop-1-en-2-yl-1,5-naphthyridin-4-yl)oxy]phenyl]pyrimidine-5-carboxamide]
3 | < 100 nM | < 100 nM | < 100 nM | < 100 nM | C=C(C)c1cnc2c(Oc3ccc(NC(=O)c4n[nH]c(C)c(-c5ccc(F)cc5C)c4=O)cc3F)ccnc2c1 [Compound 463, 5-(4-fluoro-2-methylphenyl)-N-[3-fluoro-4-[(7-prop-1-en-2-yl-1,5-naphthyridin-4-yl)oxy]phenyl]-6-methyl-4-oxo-1H-pyridazine-3-carboxamide]
4 | < 100 nM | < 100 nM | < 100 nM | < 100 nM | C=C(C)c1cnc2c(Oc3ccc(NC(=O)c4n[nH]c(C)c(-c5ccc(F)cc5)c4=O)cc3F)ccnc2c1 [Compound 464, 5-(4-fluorophenyl)-N-[3-fluoro-4-[(7-prop-1-en-2-yl-1,5-naphthyridin-4-yl)oxy]phenyl]-6-methyl-4-oxo-1H-pyridazine-3-carboxamide]
5 | < 100 nM | < 100 nM | 100 to 300 nM | < 100 nM | C=C(C)c1cnc2c(Oc3ccc(NC(=O)c4cnc(C)n(-c5ccc(F)cc5)c4=O)cc3F)ccnc2c1 [Compound 465, 1-(4-fluorophenyl)-N-[3-fluoro-4-[(7-prop-1-en-2-yl-1,5-naphthyridin-4-yl)oxy]phenyl]-2-methyl-6-oxopyrimidine-5-carboxamide]
6 | < 100 nM | < 100 nM | < 100 nM | < 100 nM | C=C(C)c1cnc2c(Oc3ccc(NC(=O)c4c(C)nc(C)n(-c5ccc(F)cc5)c4=O)cc3F)ccnc2c1 [Compound 466, 1-(4-fluorophenyl)-N-[3-fluoro-4-[(7-prop-1-en-2-yl-1,5-naphthyridin-4-yl)oxy]phenyl]-2,4-dimethyl-6-oxopyrimidine-5-carboxamide]
7 | < 100 nM | < 100 nM | < 100 nM | < 100 nM | C=C(C)c1cnc2c(Oc3ccc(NC(=O)c4c(C)nc(C)n(-c5ccc(F)cc5)c4=O)cc3)ccnc2c1 [Compound 467, 1-(4-fluorophenyl)-2,4-dimethyl-6-oxo-N-[4-[(7-prop-1-en-2-yl-1,5-naphthyridin-4-yl)oxy]phenyl]pyrimidine-5-carboxamide]
8 | < 100 nM | < 100 nM | < 100 nM | < 100 nM | COc1nc2c(Oc3ccc(NC(=O)c4c(C)nc(C)n(-c5ccc(F)cc5)c4=O)cc3F)ccnc2cc1C [Compound 468, N-[3-fluoro-4-[(6-methoxy-7-methyl-1,5-naphthyridin-4-yl)oxy]phenyl]-1-(4-fluorophenyl)-2,4-dimethyl-6-oxopyrimidine-5-carboxamide]
9 | < 100 nM | < 100 nM | < 100 nM | < 100 nM | COCc1nc(C)c(-c2ccc(F)cc2)c(O)c1C(=O)Nc1ccc(Oc2ccnc3cc(C)c(OC)nc23)c(F)c1 [Compound 469, N-[3-fluoro-4-[(6-methoxy-7-methyl-1,5-naphthyridin-4-yl)oxy]phenyl]-5-(4-fluorophenyl)-4-hydroxy-2-(methoxymethyl)-6-methylpyridine-3-carboxamide]
10 | < 100 nM | < 100 nM | < 100 nM | < 100 nM | COCc1nc(C)c(-c2ccc(F)cc2C)c(O)c1C(=O)Nc1ccc(Oc2ccnc3cc(C)c(OC)nc23)c(F)c1 [Compound 470, N-[3-fluoro-4-[(6-methoxy-7-methyl-1,5-naphthyridin-4-yl)oxy]phenyl]-5-(4-fluoro-2-methylphenyl)-4-hydroxy-2-(methoxymethyl)-6-methylpyridine-3-carboxamide]
11 | < 100 nM | < 100 nM | < 100 nM | < 100 nM | COc1nc2c(Oc3ccc(NC(=O)c4c(C)nc(C)c(-c5ccc(F)cc5C)c4O)cc3F)ccnc2cc1C [Compound 471, N-[3-fluoro-4-[(6-methoxy-7-methyl-1,5-naphthyridin-4-yl)oxy]phenyl]-5-(4-fluoro-2-methylphenyl)-4-hydroxy-2,6-dimethylpyridine-3-carboxamide]
12 | < 100 nM | < 100 nM | < 100 nM | < 100 nM | COc1nc2c(Oc3ccc(NC(=O)c4n[nH]c(C)c(-c5ccc(F)cc5)c4=O)cc3F)ccnc2cc1C [Compound 472, N-[3-fluoro-4-[(6-methoxy-7-methyl-1,5-naphthyridin-4-yl)oxy]phenyl]-5-(4-fluorophenyl)-6-methyl-4-oxo-1H-pyridazine-3-carboxamide]
13 | < 100 nM | < 100 nM | > 300 nM | > 300 nM | COc1nc2c(Oc3ccc(NC(=O)c4n[nH]c(C)c(-c5ccc(F)cc5C)c4=O)cc3F)ccnc2cc1C [Compound 473, N-[3-fluoro-4-[(6-methoxy-7-methyl-1,5-naphthyridin-4-yl)oxy]phenyl]-5-(4-fluoro-2-methylphenyl)-6-methyl-4-oxo-1H-pyridazine-3-carboxamide]
14 | < 100 nM | < 100 nM | < 100 nM | < 100 nM | C=C(C)c1cnc2c(Oc3ccc(NC(=O)c4c(C)ncc(-c5ccc(F)cc5C)c4O)cc3F)ccnc2c1 [Compound 474, 5-(4-fluoro-2-methylphenyl)-N-[3-fluoro-4-[(7-prop-1-en-2-yl-1,5-naphthyridin-4-yl)oxy]phenyl]-4-hydroxy-2-methylpyridine-3-carboxamide]
15 | < 100 nM | < 100 nM | < 100 nM | < 100 nM | C=C(C)c1cnc2c(Oc3ccc(NC(=O)c4nn(CC)c(C)c(-c5ccc(F)cc5)c4=O)cc3F)ccnc2c1 [Compound 475, 1-ethyl-5-(4-fluorophenyl)-N-[3-fluoro-4-[(7-prop-1-en-2-yl-1,5-naphthyridin-4-yl)oxy]phenyl]-6-methyl-4-oxopyridazine-3-carboxamide]
16 | < 100 nM | < 100 nM | < 100 nM | < 100 nM | C=C(C)c1cnc2c(Oc3ccc(NC(=O)c4nnc(C)c(-c5ccc(F)cc5)c4OCC)cc3F)ccnc2c1 [Compound 476, 4-ethoxy-5-(4-fluorophenyl)-N-[3-fluoro-4-[(7-prop-1-en-2-yl-1,5-naphthyridin-4-yl)oxy]phenyl]-6-methylpyridazine-3-carboxamide]
17 | < 100 nM | < 100 nM | > 300 nM | < 100 nM | C=C(C)c1cnc2c(Oc3ccc(NC(=O)c4nn(C)c(C)c(-c5ccc(F)cc5)c4=O)cc3F)ccnc2c1 [Compound 477, 5-(4-fluorophenyl)-N-[3-fluoro-4-[(7-prop-1-en-2-yl-1,5-naphthyridin-4-yl)oxy]phenyl]-1,6-dimethyl-4-oxopyridazine-3-carboxamide]
18 | < 100 nM | < 100 nM | < 100 nM | < 100 nM | C=C(C)c1cnc2c(Oc3ccc(NC(=O)c4nnc(C)c(-c5ccc(F)cc5)c4OC)cc3F)ccnc2c1 [Compound 478, 5-(4-fluorophenyl)-N-[3-fluoro-4-[(7-prop-1-en-2-yl-1,5-naphthyridin-4-yl)oxy]phenyl]-4-methoxy-6-methylpyridazine-3-carboxamide]
19 | < 100 nM | < 100 nM | < 100 nM | < 100 nM | COCCOc1cc2nccc(Oc3ccc(NC(=O)c4ccc(C)n(-c5ccc(F)cc5)c4=O)cc3F)c2nc1OC [Compound 484, N-[3-fluoro-4-[[6-methoxy-7-(2-methoxyethoxy)-1,5-naphthyridin-4-yl]oxy]phenyl]-1-(4-fluorophenyl)-6-methyl-2-oxopyridine-3-carboxamide]
20 | < 100 nM | < 100 nM | < 100 nM | < 100 nM | COCCOc1cc2nccc(Oc3ccc(NC(=O)c4c(C)cc(C)n(-c5ccc(F)cc5)c4=O)cc3F)c2nc1OC [Compound 485, N-[3-fluoro-4-[[6-methoxy-7-(2-methoxyethoxy)-1,5-naphthyridin-4-yl]oxy]phenyl]-1-(4-fluorophenyl)-4,6-dimethyl-2-oxopyridine-3-carboxamide]
